The target in assay [1] is PIK3CA (human) (UniProt P42336). In words: Inhibition of A2780 Cell Proliferation.
Assay [2] has the same target. In words: Inhibition of PIK3CA Kinase Activity.

For orientation: EC50 means the midpoint of the concentration-response curve. Read a low EC50 as greater potency. The term IC50 denotes the point on the concentration scale where inhibition reaches its midpoint.

Some results are limits rather than exact numbers.

Sequence of PIK3CA (human) (P42336 whole entry, looked up): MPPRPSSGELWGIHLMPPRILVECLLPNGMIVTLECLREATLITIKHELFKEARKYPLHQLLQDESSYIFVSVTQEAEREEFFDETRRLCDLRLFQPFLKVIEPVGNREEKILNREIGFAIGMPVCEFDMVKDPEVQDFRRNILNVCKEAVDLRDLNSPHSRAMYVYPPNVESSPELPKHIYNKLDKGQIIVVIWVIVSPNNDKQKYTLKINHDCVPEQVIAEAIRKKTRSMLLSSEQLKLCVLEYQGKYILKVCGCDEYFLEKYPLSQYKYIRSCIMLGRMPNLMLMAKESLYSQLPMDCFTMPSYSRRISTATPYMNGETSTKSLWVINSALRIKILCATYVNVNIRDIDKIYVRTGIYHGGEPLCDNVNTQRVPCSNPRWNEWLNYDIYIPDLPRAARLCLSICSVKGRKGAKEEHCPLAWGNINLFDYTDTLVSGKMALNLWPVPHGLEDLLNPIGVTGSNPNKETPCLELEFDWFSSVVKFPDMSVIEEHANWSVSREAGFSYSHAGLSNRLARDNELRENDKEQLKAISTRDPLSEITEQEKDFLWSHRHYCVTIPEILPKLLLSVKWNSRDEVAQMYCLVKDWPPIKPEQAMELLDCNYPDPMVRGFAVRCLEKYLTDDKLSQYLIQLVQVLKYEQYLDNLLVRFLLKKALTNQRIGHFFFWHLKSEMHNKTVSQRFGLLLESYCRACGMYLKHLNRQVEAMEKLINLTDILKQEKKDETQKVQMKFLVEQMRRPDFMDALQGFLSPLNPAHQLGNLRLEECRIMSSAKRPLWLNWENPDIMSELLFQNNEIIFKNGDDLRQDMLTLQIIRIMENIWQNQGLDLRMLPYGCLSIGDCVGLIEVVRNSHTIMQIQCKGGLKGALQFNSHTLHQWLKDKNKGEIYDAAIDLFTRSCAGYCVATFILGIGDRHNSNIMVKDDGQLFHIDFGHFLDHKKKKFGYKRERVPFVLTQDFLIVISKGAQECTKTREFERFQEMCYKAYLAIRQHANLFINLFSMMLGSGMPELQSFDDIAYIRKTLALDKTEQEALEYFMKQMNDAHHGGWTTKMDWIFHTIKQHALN

Molecule `CC(=O)Nc1cn2cc(-c3ccc(N)nc3F)ccc2n1` yielded an EC50 in assay [1] of under 10 µM. The molecule also registered an IC50 in assay [2] of under 1 µM.

On to `CC(=O)Nc1cn2nc(-c3cnc(N)c(C(=O)NCCNS(C)(=O)=O)c3)ccc2n1`, for which, in assay [1], the EC50 was under 25 µM. Besides, the IC50 in assay [2] is under 1 µM.

In assay [1], `CC(=O)Nc1nc2ccc(-c3cnc(N)c(C(F)(F)F)c3)cn2c1C#N` gave an EC50 of under 1 µM. The molecule further registered an IC50 in assay [2] of under 1 µM.

For `CC(=O)Nc1cn2cc(-c3cnc(N)cn3)ccc2n1`, the EC50 in assay [1] is under 25 µM. In assay [2], this molecule displayed an IC50 of under 1 µM.

In assay [1], `CNC(=O)c1ccc(-c2c(NC(C)=O)nc3ccc(-c4cnc(N)c(C(F)(F)F)c4)cn23)cc1` displayed a 50% effective concentration (EC50) of under 25 µM. The IC50 in assay [2] was under 1 µM.

In turn, `COCC(=O)Nc1cn2nc(-c3cnc(N)c(C(F)(F)F)c3)ccc2n1` displayed an EC50 in assay [1] of under 1 µM. In assay [2], this molecule showed an IC50 of under 1 µM.

The molecule `CC(=O)Nc1nc2cc(C)c(-c3cnc(N)c(C(F)(F)F)c3)cc2s1` showed an EC50 in assay [1] of under 25 µM. This molecule also returned an IC50 in assay [2] of under 1 µM.

`Nc1ncc(-c2ccc3nc(NC(=O)CCC4CCCCN4)cn3n2)cc1C(F)(F)F` (stereo not drawn): the EC50 in assay [1] is under 1 µM. In assay [2], this molecule displayed an IC50 of under 1 µM.

The molecule `Nc1ncc(-c2ccc3nc(NC(=O)CCCN4CCCCC4)cn3c2)cc1C(F)(F)F` yielded an EC50 in assay [1] of under 10 µM. In assay [2], this molecule showed an IC50 of under 1 µM.

Molecule `CC(=O)Nc1cn2cc(-c3cnc(N)c(-c4ccc(N5CCOCC5)cc4)c3)ccc2n1` showed an EC50 in assay [1] of under 10 µM. This molecule gave an IC50 in assay [2] of under 10 µM.

With `CC(=O)Nc1cn2nc(-c3cnc(N)c(-c4ccccc4)c3)ccc2n1`, in assay [1], the EC50 is under 1 µM. In addition, in assay [2], the IC50 was under 1 µM.

As for `CNCC(=O)Nc1cn2cc(-c3cnc(N)c(C(F)(F)F)c3)ccc2n1`, in assay [1], the 50% effective concentration (EC50) is under 1 µM. The IC50 in assay [2] is under 1 µM.

In assay [1], `CC(=O)Nc1cn2cc(-c3cnc(N)nc3)ccc2n1` yielded a half-maximal effective concentration (EC50) of under 25 µM. The molecule also yielded a 50% inhibitory concentration (IC50) in assay [2] of under 1 µM.

The molecule `CC(=O)Nc1cn2cc(-c3cnc(N)c(-c4cccc(F)c4)c3)ccc2n1` came in with an EC50 in assay [1] of under 10 µM. In assay [2], this molecule came in with an IC50 of under 1 µM.

`CC(=O)Nc1cn2cc(-c3cnc(N)c(CN4CCCC4)c3)ccc2n1` showed an EC50 in assay [1] of under 25 µM. Further, the IC50 in assay [2] is under 1 µM.

`Nc1ncc(-c2ccc3nc(NC(=O)c4cccnc4)cn3c2)cc1C(F)(F)F` showed an EC50 in assay [1] of under 10 µM. In addition, the IC50 in assay [2] was under 1 µM.

`CC(=O)Nc1nc2ccc(-c3cnc(N)c(C(F)(F)F)c3)cn2c1CCc1ccccc1` returned an EC50 in assay [1] of under 10 µM. In addition, in assay [2], the IC50 is under 1 µM.

Take `CC(=O)Nc1cn2cc(-c3cnc(N)c(C=NNCC(F)(F)F)c3)ccc2n1`: the EC50 in assay [1] was under 1 µM. The same molecule registered a half-maximal inhibitory concentration (IC50) in assay [2] of under 1 µM.

On to `CC(=O)Nc1cn2nc(-c3cnc(N)c(-c4cccc(C(F)(F)F)c4)c3)ccc2n1`, for which the EC50 in assay [1] is under 10 µM. The IC50 in assay [2] is under 1 µM.

As for `CC(=O)Nc1cn2cc(-c3cnc(N)c(OCC4CCN(C)CC4)n3)ccc2n1`, in assay [1], the EC50 is under 10 µM. The IC50 in assay [2] is under 1 µM.

Take `CC(=O)Nc1cn2cc(-c3cnc(N)c(Oc4ccccc4)n3)ccc2n1`: the EC50 in assay [1] was under 1 µM. This molecule came in with an IC50 in assay [2] of under 1 µM.

As for `NCCCC(=O)Nc1cn2nc(-c3cnc(N)c(C(F)(F)F)c3)ccc2n1`, the EC50 in assay [1] is under 25 µM. This molecule also yielded an IC50 in assay [2] of under 1 µM.

Take `Nc1ncc(-c2ccc3nc(NC(=O)[C@@H]4CCCCN4Cc4ccccc4)cn3c2)cc1C(F)(F)F`: the concentration for a half-maximal effect (EC50) in assay [1] is under 10 µM. Also, the IC50 in assay [2] is under 1 µM.

For `CC(=O)Nc1nc2ccc(-c3cnc(N)c(C(F)(F)F)c3)c(C)c2s1`, the EC50 in assay [1] is under 10 µM. The molecule also gave an IC50 in assay [2] of under 1 µM.

In the case of `COc1cccc(-c2cc(-c3ccc4nc(NC(C)=O)cn4n3)cnc2N)n1`, in assay [1], the EC50 is under 10 µM. For the same molecule, the 50% inhibitory concentration (IC50) in assay [2] is under 1 µM.

Consider `Nc1ncc(-c2ccc3nc(NC(=O)c4ccc(-n5ccnc5)cc4)cn3c2)cc1C(F)(F)F`, for which the EC50 in assay [1] is under 10 µM. Moreover, in assay [2], the IC50 is under 1 µM.

Molecule `CC(=O)Nc1nc2ccc(-c3cnc(N)c(CN(C)C)c3)cc2s1` had an EC50 in assay [1] of under 10 µM. Further, in assay [2], the IC50 was under 1 µM.

`Nc1ncc(-c2ccc3nc(NC(=O)C(F)(F)F)cn3c2)cn1` gave an EC50 in assay [1] of under 25 µM. For the same molecule, the IC50 in assay [2] is under 1 µM.

In assay [1], `Nc1ncc(-c2ccc3nc(NC(=O)CN4CCCCC4)cn3c2)cc1C(F)(F)F` showed an EC50 of under 10 µM. The IC50 in assay [2] is under 1 µM.

In assay [1], `COC(=O)Nc1nc2ccc(-c3ccc(N)nc3)cc2s1` gave an EC50 of under 10 µM. For the same molecule, the IC50 in assay [2] was under 1 µM.

The molecule `CC(=O)Nc1cn2cc(-c3cnc(N)c(Br)n3)ccc2n1` yielded an EC50 in assay [1] of under 25 µM. Further, the IC50 in assay [2] was under 1 µM.

Consider `Cc1cc(C(=O)Nc2cn3cc(-c4cnc(N)c(C(F)(F)F)c4)ccc3n2)no1`, for which the EC50 in assay [1] was under 1 µM. Further, in assay [2], the IC50 was under 1 µM.

Turning to `CC(=O)Nc1cn2nc(-c3cnc(N)c(-c4ccccc4C(F)(F)F)c3)ccc2n1`, in assay [1], the EC50 is under 1 µM. In assay [2], the IC50 is under 1 µM.

Take `CC(=O)Nc1cn2nc(-c3cnc(N)c(C(=O)O)c3)ccc2n1`: in assay [1], the EC50 was under 25 µM. In assay [2], this molecule came in with an IC50 of under 1 µM.

(Values after the Kinase Knowledgebase extract (Sharma et al. 2016).)
